Values quoted from earlier work, collected in article PMC5962642, “Dynamic imaging of adaptive stress response pathway activation for prediction of drug induced liver injury” (Archives of Toxicology, 2018).

Columns and labels:
[1] = C-max obtained from FDA or literature; ref per compound (FDA, Dailymed, Xu, O’Brien, Khetani, Regenthal, Gustafsson, Dawson, Ogutu, Patel, Schmidt, Ravic, Keisu, Hu, Wagner); cited from earlier work
[2] = ref Chen et al. [2016], cited from earlier work; for Hepa. (hepatotoxicity class): FDA labeling in eight classes of hepatotoxicity; for DILI con. (DILI-concern labeling): FDA DILI labeling
[3] = ref livertox.nih.gov database; cited from earlier work

SMILES | Cmax [1] | Hepa. (hepatotoxicity class) [2] | DILI con. (DILI-concern labeling) [2] | Metab (metabolic potential) [3]
CC(=O)CC(c1ccccc1)c1c(O)c2ccccc2oc1=O (stereo not drawn) [Warfarin] | 4.86 µM |  |  | 
COc1ccc2c(c1)c(CC(=O)O)c(C)n2C(=O)c1ccc(Cl)cc1 [Indomethacin] | 5.59 µM |  |  | 
CC(=O)Oc1cc(C(C)C)c(OCCN(C)C)cc1C [Moxisylyte] | 0.16 µM | 8 |  | 
CCC1=C(C)CN(C(=O)NCCc2ccc(S(=O)(=O)NC(=O)N[C@H]3CC[C@H](C)CC3)cc2)C1=O [Glimepiride] | 1.12 µM | 7 | Less-DC | 
O=c1[nH]cnc2c1ncn2[C@H]1CC[C@@H](CO)O1 [Didanosine] | 9.83 µM | 8 |  | 
CN(Cc1cnc2nc(N)nc(N)c2n1)c1ccc(C(=O)N[C@@H](CCC(=O)O)C(=O)O)cc1 [Methotrexate] | 0.77 µM | 3 | Most-DC | 
CC(O)(CS(=O)(=O)c1ccc(F)cc1)C(=O)Nc1ccc(C#N)c(C(F)(F)F)c1 (stereo not drawn) [Bicalutamide] | 1.97 µM | 8 |  | YES
CC(C)NCC(O)COc1cccc2ccccc12 (stereo not drawn) [Propranolol] |  |  |  | YES
C[C@H]1O[C@@H](O[C@H]2[C@@H](O)C[C@H](O[C@H]3[C@@H](O)C[C@H](O[C@H]4CC[C@@]5(C)[C@H](CC[C@@H]6[C@@H]5C[C@@H](O)[C@]5(C)[C@@H](C7=CC(=O)OC7)CC[C@]65O)C4)O[C@@H]3C)O[C@@H]2C)C[C@H](O)[C@@H]1O [Digoxin] | 0.003 µM | 1 |  | 
CC(C(=O)O)c1cccc(Oc2ccccc2)c1 (stereo not drawn) [Fenoprofen] | 58.2 µM | 8 | Most-DC | YES
CCCNC(=O)NS(=O)(=O)c1ccc(Cl)cc1 [Chlorpropamide] | 130 µM | 2 | Less-DC | 
CN(C)c1nc(N(C)C)nc(N(C)C)n1 [Altretamine] | 3.76 µM |  | Amb.-DC | 
CN(C)C(=N)N=C(N)N [Metformin] |  | 1 | Less-DC | YES
CCC1(c2ccccc2)C(=O)NCNC1=O [Primidone] | 4.67 µM | 1 |  | YES
Nc1nc2ncc(CNc3ccc(C(=O)N[C@@H](CCC(=O)O)C(=O)O)cc3)nc2c(=O)[nH]1 [Folic acid] | 0.043 µM | 1 |  | 
CNCCCC12CCC(c3ccccc31)c1ccccc12 [Maprotiline] | 0.18 µM | 5 | Amb.-DC | 
CC(CCc1ccccc1)NCC(O)c1ccc(O)c(C(N)=O)c1 (stereo not drawn) [Labetalol] | 2.68 µM | 8 | Most-DC | 
OCCOCCN1CCN(C(c2ccccc2)c2ccc(Cl)cc2)CC1 (stereo not drawn) [Hydroxyzine] | 0.27 µM | 1 | No-DC | 
COCCc1ccc(OCC(O)CNC(C)C)cc1 (stereo not drawn) [Metoprolol] | 0.56 µM |  |  | 
C1CCC(C(CC2CCCCN2)C2CCCCC2)CC1 (stereo not drawn) [Perhexiline] |  | 8 | Most-DC | 

SMILES | Cmax [1] | Hepa. (hepatotoxicity class) [2] | DILI con. (DILI-concern labeling) [2] | Metab (metabolic potential) [3]
C=CC[C@@H]1/C=C(\C)C[C@H](C)C[C@H](OC)[C@H]2O[C@@](O)(C(=O)C(=O)N3CCCC[C@H]3C(=O)O[C@H](/C(C)=C/[C@@H]3CC[C@@H](O)[C@H](OC)C3)[C@H](C)[C@@H](O)CC1=O)[C@H](C)C[C@@H]2OC [Tacrolimus] |  | 5 | Less-DC | YES
CC[C@H]1OC(=O)[C@H](C)[C@@H](O[C@H]2C[C@@](C)(OC)[C@@H](O)[C@H](C)O2)[C@H](C)[C@@H](O[C@@H]2O[C@H](C)C[C@H](N(C)C)[C@H]2O)[C@](C)(O)C[C@@H](C)C(=O)[C@H](C)[C@@H](O)[C@]1(C)O [Erythromycin] | 11 µM |  |  | 
CN(C)/N=N/c1[nH]cnc1C(N)=O [Dacarbazine] | 20.6 µM | 6 | Most-DC | 
NC(=O)N1c2ccccc2C=Cc2ccccc21 [Carbamazepine] | 50.8 µM | 7 | Most-DC | 
CS(=O)(=O)OCCCCOS(C)(=O)=O [Busulfan] | 0.277 µM | 8 | Most-DC | 
CCCCNC(=O)NS(=O)(=O)c1ccc(C)cc1 [Tolbutamide] | 233 µM |  |  | 
COC(=O)Nc1nc2ccc(C(=O)c3ccccc3)cc2[nH]1 [Mebendazole] | 0.13 µM | 3 |  | 
O=C(c1ccccc1)c1ccc2n1CCC2C(=O)O (stereo not drawn) [Ketorolac] | 3.53 µM | 3 | Less-DC | 
C[C@@H]1C[C@H]2[C@@H]3CCC4=CC(=O)C=C[C@]4(C)[C@@]3(F)[C@@H](O)C[C@]2(C)[C@@]1(O)C(=O)CO [Dexamethasone] | 0.224 µM | 3 | Amb.-DC | 
Cc1cccc(CN2CCN(C(c3ccccc3)c3ccc(Cl)cc3)CC2)c1 (stereo not drawn) [Meclizine] |  | 1 | No-DC | 
COC1=CC(=O)C[C@@H](C)[C@]12Oc1c(Cl)c(OC)cc(OC)c1C2=O [Griseofulvin] | 4.54 µM |  |  | YES
Cn1cc[nH]c1=S [Methimazole] | 2.62 µM |  |  | 
CNC(=C[N+](=O)[O-])NCCSCc1ccc(CN(C)C)o1 [Ranitidine] | 1.79 µM | 5 | Less-DC | 
COc1ccccc1Oc1c(NS(=O)(=O)c2ccc(C(C)(C)C)cc2)nc(-c2ncccn2)nc1OCCO [Bosentan] |  | 7 | Most-DC | YES
Nc1nc(O)c2ncn(COC(CO)CO)c2n1 [Ganciclovir] | 4.62 µM | 7 |  | 
CS(=O)(=O)Nc1ccc([N+](=O)[O-])cc1Oc1ccccc1 [Nimesulide] | 21.1 µM |  |  | YES
CNC[C@H](O)c1ccc(O)c(O)c1 [Epinephrine] | 0.002 µM | 1 | No-DC | 
CN(C/C=C/C#CC(C)(C)C)Cc1cccc2ccccc12 [Terbinafine] | 4 µM | 8 | Most-DC | 
O=c1[nH]c(=O)n([C@@H]2O[C@H](CO)[C@@H](O)[C@@H]2F)cc1I [Fialuridine] | 1 µM | 8 | Most-DC | 
C#C[C@]1(O)CC[C@H]2[C@@H]3CCC4=Cc5oncc5C[C@]4(C)[C@H]3CC[C@@]21C [Danazol] | 0.109 µM | 8 |  | 

SMILES | Cmax [1] | Hepa. (hepatotoxicity class) [2] | DILI con. (DILI-concern labeling) [2] | Metab (metabolic potential) [3]
CC(C)OC(=O)C(C)(C)Oc1ccc(C(=O)c2ccc(Cl)cc2)cc1 [Fenofibrate] | 4.1 µM | 3 |  | 
CCN(CC)C(=S)SSC(=S)N(CC)CC [Disulfiram] | 5.4 µM |  |  | 
O=C(N[C@H](CO)[C@H](O)c1ccc([N+](=O)[O-])cc1)C(Cl)Cl [Chloramphenicol] | 46.4 µM |  |  | 
C[C@H](CS)C(=O)N1CCC[C@H]1C(=O)O [Captopril] | 8.88 µM | 7 |  | 
CC1COc2c(N3CCN(C)CC3)c(F)cc3c(=O)c(C(=O)O)cn1c23 (stereo not drawn) [Ofloxacin] | 9.96 µM | 3 |  | 
CNCCC(Oc1ccc(C(F)(F)F)cc1)c1ccccc1 (stereo not drawn) [Fluoxetine] |  | 3 |  | 
Clc1ccccc1C(c1ccccc1)(c1ccccc1)n1ccnc1 [Clotrimazole] | 0.087 µM | 3 | Less-DC | 
CCc1cccc2c3c([nH]c12)C(CC)(CC(=O)O)OCC3 (stereo not drawn) [Etodolac] | 68.5 µM | 8 | Most-DC | 
CCCc1cc(=O)[nH]c(=S)[nH]1 [Propylthiouracil] | 9.1 µM | 8 |  | 
CC/C(=C(\c1ccccc1)c1ccc(OCCN(C)C)cc1)c1ccccc1 [Tamoxifen] |  |  |  | YES
Fc1ccc([C@@H]2CCNC[C@H]2COc2ccc3c(c2)OCO3)cc1 [Paroxetine] |  | 8 | Less-DC | YES
CN(C)CCCN1c2ccccc2CCc2ccccc21 [Imipramine] | 0.29 µM |  |  | YES
CC1(C)S[C@@H]2[C@H](NC(=O)[C@H](N)c3ccc(O)cc3)C(=O)N2[C@H]1C(=O)O [Amoxicillin] | 22.3 µM | 5 | Less-DC | 
C[C@]12C=CC(=O)C=C1CC[C@@H]1[C@@H]2[C@@H](O)C[C@@]2(C)[C@H]1CC[C@]2(O)C(=O)CO [Prednisolone] | 0.68 µM | 3 | Less-DC | 
Clc1ccccc1CN1CCc2sccc2C1 [Ticlopidine] | 8.07 µM |  |  | 
COc1ccc([C@@H]2Sc3ccccc3N(CCN(C)C)C(=O)[C@@H]2OC(C)=O)cc1 [Diltiazem] | 0.356 µM |  |  | 
CC(C)NCC(O)c1ccc(O)c(O)c1 (stereo not drawn) [Isoproterenol] | 2.02 µM | 1 | No-DC | 
CCOC(=O)CN[C@@H](C(=O)N1CC[C@H]1C(=O)NCc1ccc(/C(N)=N\O)cc1)C1CCCCC1 [Ximelagatran] | 0.3 µM |  |  | 
CC[C@@H](CO)NCCN[C@@H](CC)CO [Ethambutol] | 24.5 µM | 8 | Most-DC | 
O=C1CC2(CCCC2)CC(=O)N1CCCCN1CCN(c2ncccn2)CC1 [Buspirone] | 0.016 µM |  | Amb.-DC | 
